Data set [1] has as its system NIH 3T3 cells. Briefly: Cytotoxicity by staining with fluorescein diacetate/ethidium bromide. The format is cell-based. The following applies: 0 to 46 μM. On the procedure: (§1) Bars represent the mean±S.E.M. of at least three independent experiments done in triplicate and calculated as multiplicity of counts in the tested sample over the control sample. SA peptide within the concentration range used (0 to 46 μM) was not cytotoxic as determined by staining with fluorescein diacetate/ethidium bromide. ^20

Data set [2] concerns NIH 3T3 cells. In words: [3H]thymidine incorporation (mitogenic response) of NIH 3T3 cells. The format is cell-based. The note with it: comparable concentration ranges. The procedure:
A 26-residue hybrid peptide (referred to as SA, listed herein as SEQ ID NO:3) was designed and synthesized. […] Thus, the SA peptide differs from the SM peptide only in its 7-residue carboxyl terminal “cargo” region. A functional assay was performed in which SA peptide was able to induce a mitogenic response of NIH 3T3 cells measured by [^3H]thymidine incorporation in a manner similar to aFGF bearing, the same NLS. ^18
In this functional assay, confluent 3T3 cells grown initially in DMEM containing 10% FBS were transferred to a low serum medium (DMEM containing 0.5% FBS) for 2 days. The test peptides, either SA peptide, SAα pep-tide, ANL peptide, or SM peptide, or aFGF, were added to a fresh low serum medium at the indicated concentrations at 37° C. After 16 hours, [^3H]thymidine was added and 4 hours later, the cells were washed with PBS, treated with trichloroacetic acid, solubilized with 0.15 M NaOH, and the radioactivity was determined in a liquid scintillation counter.
as §1

In data set [3] the test system is NIH 3T3 cells. In words: Indirect immunofluorescence assay of peptide import into NIH 3T3 cells. It is filed as cell-based. The following applies: SAα-treated NIH 3T3 cells. The text has this:
A 26-residue peptide (referred to as SM, listed herein as SEQ ID NO:1) that contained the predicted signal sequence of Kaposi fibroblast growth factor ^16-17 (K-FGF) was chemically synthesized. An indirect immunofluorescence assay using antibody against epitope tag-containing SM peptide was employed to follow translocation of the SM peptide to the intracellular compartments of NIH 3T3 cells. A polyclonal anti-SM peptide antibody against the SM peptide-keyhole limpet haemocyanin conjugate (Pierce) was raised in rabbits and reacted with SM peptide in ELISA (titer>1:30,000). The intracellular SM peptide was detected by an indirect imrnmunofluorescence assay using affinity-purified anti-SM peptide IgG and rhodamine-labeled anti-rabbit antibody (Kirkegaard & Perry). Briefly, confluent NIH 373 cells on the chamber slides (Nunc) were treated with either 0.5 ml SM peptide solution (100 μg ml^−1) in DMEM containing 10% FBS or with 0.5 ml DMEM containing 10% FBS only for 30 minutes at 37° C. The cells were fixed with 3.5% paraformaldehyde solution in PBS followed by 0.25% Triton X-100 in PBS and then treated with 1:20 anti-SM peptide IgG in PBS containing 0.5% bovine serum albumin (BSA) for 1.5 h. The intracellular SM peptide-antibody complexes were visualized by subsequent incubation with a rhodamine-labeled anti-rabbit polyclonal antibody for 1 h. In control systems, anti-SM peptide antibody was preabsorbed with the SM peptide. Intracellular localization of the SAα peptide was detected by immunofluorescence assay using affinity-purified anti-SM peptide IgG as described above for SM peptide. […] A ten-step z-position sectional scanning of the SM peptide-treated cells by the confocal laser scanning microscopy (CLSM) affirmed that these deposits were intracellular. […] Likewise, cells not exposed to SM peptide or cells exposed to SM peptide followed by the secondary antibody alone were negative. If cells were fixed with paraformaldehyde before peptide treatment, the cellular import of SM peptide was prevented.
To determine the rate of SM peptide import across cell membranes, a kinetic experiment was carried out with the SM peptide-treated NIH 3T3 cells. NIH 3T3 cells were treated at 37° C. with 0.5 ml SM peptide at 100 μg mL^−1 in DMEM containing 10% FBS for 1, 5, 15, 30, 60 and 120 minutes. Intracellular SM peptide deposits were detected by indirect immunofluorescence assay as described above. […] The 30-minute time point was therefore selected to determine the optimal peptide concentrations for detectable import.
To determine the optimal peptide concentration, NIH 3T3 cells were treated for 30 minutes at 37° C. with 0.5 ml SM peptide solution in DMEM containing 10% FBS at the following concentrations: 0, 2, 10, 50, 100, and 150 μg ml^−1. Intracellular localization of the SM peptide was detected by indirect immunofluorescence assay as described above. […] The cellular import was concentration-dependent and reached a plateau between 50 μg/ml and 100 μg/ml.
Transport of the SM peptide across the cell membrane was temperature-dependent. […] Accordingly, cellular import of the SM peptide resumed when the incubation temperature shifted from 4° C. to 37° C.
The intracellular SA peptide could not be tracked by an immunofluorescence assay because it was not recognized by the available anti-SM peptide antibody. However, attaching two extra amino acid residues (Met-Pro) to the carboxyl terminus of the SA peptide produced a modified SA peptide (referred to as SAα, listed herein as SEQ ID NO:4) that contained a 3-amino acid epitope tag, Leu-Met-Pro, recognized by anti-SM peptide antibody in ELISA. […] Like SA peptide, SAα peptide was mitogenic in the thymidine incorporation assay.

Data set [4] deals with NIH 3T3 cells. In words: Import of 125I-labeled peptide into NIH 3T3 cells (cell-associated radioactivity; ATP depletion, protease treatment). The format is cell-based. The following applies: for Counts in cells: 15 ng, 30 min; for Counts in cell lysates / Counts in supernatants: 5 min. An excerpt: Intracellular localization of the membrane-permeable peptide was also shown by treatment of cells with proteases following peptide import. For this experiment, 41-residue peptide (referred to as SEP and listed herein as SEQ ID NO:6) that contained the same hydrophobic sequence as SM peptide followed by the sequence of K-FGF(129-153) was designed and synthesized. The latter was present in KP peptide not containing hydrophobic sequence that served as the control for the membrane-permeable SKP peptide. […] The intracellular ^125I-SKP peptide was resistant to the action of proteases.
Both SKP and KP peptides were radiolabeled with ^125I by the lodogen method (Pierce). The specific activities of both peptides were similar (2.5×10^4 cpm/ng). NIH 3T3 cells were subcultured on a 60-mm dish and incubated at 37° C. for 3 days. The confluent monolayers (1.6×10^6 cells) on each dish were then washed twice with PBS and treated with 15 ng of ^125I-SKP or ^125I-KP peptide at 37° C., for the indicated time. The cells were washed eight times with PBS and twice with 2 M NaCl buffer (pH 7.5) until no radioactivity could be detected in the washings. The washed cells were lysed in lysis buffer (10 mM Tris-HCl, pH 7.0, 0.1 mM EDTA, 1 mM phenylmethylsulphony fluoride, 1 mM dithiothreitol, and 1% Triton X-100) and the radioactivity in the cell lysates was counted in a Packard auto-gamma counter. In some experiments, the washed cells were further treated with pronase (1 mg/ml) or trypsin (0.05%) solution in DMEM for 5 min at 37° C. The supernatants and cells were separated and their radioactivities were counted separately. For ATP depletion assay, cells were incubated with 5 μglml antimycin, 6.5 mM 2-deoxyglucose, and 10 mM glucono-δ-lactone in DMEM for 2 h at 37° C. before addition of ^125I-SKP peptide. The levels of ATP in ATP-depleted cells and normal cells were determined by ATP bioluminescent assay kit (Sigma).
For ATP depletion assay, confluent NIH 3T3 cells (1.6×10^6 cells) in each dish were treated with or without ATP depleting reagents (antimycin, 2deoxyglucose, and glucono-δ-lactone) for 2 h at 37° C. Cells were then treated with 15 ng of ^125I-SKP peptide for 30 min at 37° C. After complete removal of extracellular^125I-labeled peptides, the radioactivity in the cell lysates was counted. For the assay using proteases, cells were treated with ^125 I-SKP peptide and washed as described above. The ^125I-SKF peptide-associated cells were then treated with pronase (1 mg/ml), trypsin (0.05%), or diluent for 5 min at 37° C. The radio-activities in the cell lysates and supernatants were counted separately. Data in Table 1 represent the mean the mean ±SEM of triplicate determinations of a single experiment. The experiment was repeated three times with similar results.

In data set [5] the test system is NF-κB. The format is cell-based, murine. The following applies: J774, LPS 10 ng/ml, peptide 31 μM (Example II).
The subject of data set [6] is NF-κB complex. The note with it: for Inducible nuclear import of NF-κB, LPS / Inducible nuclear import of NF-κB, TNFα: LEII.
For data set [7], the system named is rodent endothelial cell line (LE-II). Briefly: Indirect immunofluorescence assay of peptide import, LE-II cells. It is filed as cell-based.
Data set [8] relates to rabbits. Briefly: Localized Shwartzman reaction (LPS-induced skin inflammatory reaction) in rabbits. It is filed as in vivo, rabbit. The following applies: intradermal application prior to the second LPS injection.
Data set [9] has as its system NF-κB. It is filed as cell-based.

Where two headings read alike, the source gives them in different places. Bridges are numbered along the chain shown (N, C = ends). Where no end group is shown, it is not given here.

In the case of AAVALLPAVLLALLAPAAANYKKPKL [SA peptide], the Cytotoxicity result in data set [1] is given as “not cytotoxic”.
On to “Asn-Tyr-Lys-Lys-Pro-Lys-Leu (NYKKPKL) (1..7 Note/label = a (“Nuclear localization sequence of aFGF”)) [ANL peptide, 7-residue peptide representing the NLS of aFGF, reference compound]”, for which, in data set [2], the “Mitogenic activity in thymidine incorporation assay” value is on record as “Neither control peptide showed any significant mitogenic activity”.
Take “SAα peptide: SA peptide with two extra residues (Met-Pro) at the carboxyl terminus (AAVALLPAVLLALLAPAAANYKKPKLMP; 1..16 Note/label = a (“Signal peptide amino acid sequence of K-FGF”))”: in data set [3], the “Intracellular peptide staining with anti-SM peptide antibody” value is given as “punctate staining pattern”. The “Mitogenic activity in thymidine incorporation assay” value in [2] was “mitogenic”.
With “SKP peptide: 41-residue peptide: same hydrophobic sequence as SM peptide followed by K-FGF(129-153); tested 125I-radiolabeled (AAVALLPAVLLALLAPEILLPNNYNAYESYKYPGMFIALSK; also: 125I radiolabel, site not given here)”, the “Radioactivity detected in peptide-treated cells” value in [4] (15 ng 125I-peptide, 37° C.) was “Substantial radioactivity was detected”. For the same substance, the Counts in cells in data set [4] (ATP-depleted cells, 37° C.) is recorded as 22,266 ± 3,602 cpm/1.6 × −10′ cells; in data set [4] (untreated (ATP-positive) cells, 37° C.) it was 20,189 ± 2,109 cpm/1.6 × −10′ cells. Moreover, the “Counts in cell lysates” value in data set [4] (no protease (diluent), 37° C.) is 21,323 ± 853; in data set [4] (pronase 1 mg/ml, 37° C.), 21,791 ± 1,953. Further, the Counts in supernatants in [4] (no protease (diluent), 37° C.) was 2,966 ± 838; in data set [4] (pronase 1 mg/ml, 37° C.) it was 1,979 ± 75; in data set [4] (trypsin 0.05%, 37° C.), 655 ± 70. In addition, the “Loss of cell-associated radioactivity after protease treatment” value in data set [4] (pronase or trypsin) was “no significant loss of cell-associated radioactivity was observed”.
As for “SN50 peptide: 26-residue peptide: K-FGF signal sequence (residues 1-16) and NLS of NF-kB p50 subunit (residues 17-26) (AAVALLPAVLLALLAPVNRKRNKLMP)”, the “Nuclear import of NF-κB induced by LPS” value in [5] is listed as “blocked”. Moreover, the “Inducible nuclear import of NF-κB, LPS” value in data set [6] (LPS 10 ng/ml (Example II)) and in data set [6] (LPS 10 ng/ml (Example III)) was “inhibited” throughout. In addition, the “Inducible nuclear import of NF-κB, TNFα” value in data set [6] (TNFα 20 U/ml (Example III)) and in [6] (TNFα 100 U/ml (Example II)) was “inhibited” in each case. The “Intracellular distribution compared to intracellular SM peptide” value in data set [7] is reported as “more nuclear staining pattern”. Also, in data set [8], the “Localized skin inflammatory reaction (Evans' Blue area)” value is “greatly diminished area of blue discoloration”.
As for “cSN50 peptide: cyclic peptide designed by inserting two cysteines flanking the NLS motif of SN50 (AAVALALLPAVLLALLAPCYVQRKRQKLMPC; disulfide 19-31 (inferred))”, the “Potency relative to the prototypical SN50 peptide (phosphoimager analysis)” value in data set [6] (cSN50 versus SN50) is 3-10 times. For the same substance, in data set [9], the “SEB-induced NF-κB nuclear import” value was “increasing inhibition of SEB-induced NF-κB nuclear import”.

These data come from patent publication US7553929B2, “Cell permeable peptides for inhibition of inflammatory reactions and methods of use” (Vanderbilt University, priority 1994, dated 2009).
